Measurements reported in patent US20240124410A1, “SMALL MOLECULES AND THEIR USE AS MALT1 INHIBITORS” (University of Pittsburgh - Of the Commonwealth System of …, priority 2021, published 2024).

Assays:
DRD1 = biological target: T1, DRD1 (Homo sapiens, UniProt P21728); assay: Eurofins SAFETYscan 78-target panel, off-target effects, DRD1; assay type: biochemical; details: antagonist / blocker / inhibitor mode
T1 construct: Eurofins
Experimental: (§1) FIG. 9. Table summarizing the Eurofins analysis of potential off-target effects of M1i-124. […] values above 10 μM are generally considered to be acceptable. FIG. 10. Representative hematoxylin and eosin (H&E) staining of organ sections (lung, heart, kidney, liver and adrenal) from control and M1i-124 treated mice described in FIG. 6.
(§2) Studies were performed using the services of Touchstone Biosciences and Eurofins Pharma Discovery Services. […] All blood samples (30-50 ul per sample) were taken via tail vein at 5, 15, and 30 minutes, and 1, 2, 4, 6, 8, and 24 hours after dosing. Blood samples are collected in Greiner MiniCollect K2 EDTA tubes, placed on ice, and within 30 minutes, centrifuged at 15,000 g for 5 minutes to obtain plasma samples. All plasma samples are stored at −70° C. until analysis. Plasma samples were prepared for analysis by LC-MS/MS, and key PK parameters, including terminal half-life (t 112), initial plasma concentration (C0), area under the plasma concentration vs. time curve (AUC), volume of distribution at steady-state (Vss), total plasma clearance (CLp), and mean residence time (MRT), were measured.
(§3) Assay details are available through Eurofins.

CNR2 = biological target: T2, CNR2 (Homo sapiens, UniProt P34972); assay: Eurofins SAFETYscan 78-target panel, off-target effects, CNR2; assay type: biochemical; details: antagonist / blocker / inhibitor mode
T2 construct: Eurofins
T2 sequence (P34972 whole entry): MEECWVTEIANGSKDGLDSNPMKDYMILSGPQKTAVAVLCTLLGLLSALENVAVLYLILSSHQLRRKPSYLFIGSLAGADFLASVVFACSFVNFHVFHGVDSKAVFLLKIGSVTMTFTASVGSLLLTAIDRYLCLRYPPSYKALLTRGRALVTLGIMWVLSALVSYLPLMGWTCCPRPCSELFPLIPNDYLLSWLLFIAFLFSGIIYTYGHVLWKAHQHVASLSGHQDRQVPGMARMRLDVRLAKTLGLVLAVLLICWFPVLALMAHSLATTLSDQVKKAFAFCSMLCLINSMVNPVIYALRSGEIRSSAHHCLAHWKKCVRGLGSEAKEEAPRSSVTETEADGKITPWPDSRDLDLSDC
Experimental: as §1, §2, §3

CHRM2 = biological target: T3, CHRM2 (Homo sapiens, UniProt P08172); assay: Eurofins SAFETYscan 78-target panel, off-target effects, CHRM2; assay type: biochemical; details: antagonist / blocker / inhibitor mode
T3 construct: Eurofins
T3 sequence (P08172 1-466): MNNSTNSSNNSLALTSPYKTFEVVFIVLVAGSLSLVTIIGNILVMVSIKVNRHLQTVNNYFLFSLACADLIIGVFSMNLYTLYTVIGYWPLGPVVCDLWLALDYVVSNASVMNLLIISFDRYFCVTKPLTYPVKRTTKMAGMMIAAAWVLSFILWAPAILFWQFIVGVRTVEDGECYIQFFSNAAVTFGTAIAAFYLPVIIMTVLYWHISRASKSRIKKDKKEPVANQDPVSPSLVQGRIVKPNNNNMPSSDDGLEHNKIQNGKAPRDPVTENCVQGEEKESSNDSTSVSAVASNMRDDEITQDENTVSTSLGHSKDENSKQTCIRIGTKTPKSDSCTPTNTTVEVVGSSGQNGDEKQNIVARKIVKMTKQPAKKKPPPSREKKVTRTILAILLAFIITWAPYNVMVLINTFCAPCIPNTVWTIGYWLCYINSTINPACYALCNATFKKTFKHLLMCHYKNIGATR
Experimental: as §1, §2, §3

KvLQT1/minK = biological target: T4, KvLQT1/minK (Homo sapiens, UniProt P15382+P51787); assay: Eurofins SAFETYscan 78-target panel, off-target effects, KvLQT1/minK; assay type: biochemical; details: antagonist / blocker / inhibitor mode
T4 construct: Eurofins
Experimental: as §1, §2, §3

OPRM1 = biological target: T5, OPRM1 (Homo sapiens, UniProt P35372); assay: Eurofins SAFETYscan 78-target panel, off-target effects, OPRM1; assay type: biochemical; details: antagonist / blocker / inhibitor mode
T5 construct: Eurofins
T5 sequence (P35372 whole entry): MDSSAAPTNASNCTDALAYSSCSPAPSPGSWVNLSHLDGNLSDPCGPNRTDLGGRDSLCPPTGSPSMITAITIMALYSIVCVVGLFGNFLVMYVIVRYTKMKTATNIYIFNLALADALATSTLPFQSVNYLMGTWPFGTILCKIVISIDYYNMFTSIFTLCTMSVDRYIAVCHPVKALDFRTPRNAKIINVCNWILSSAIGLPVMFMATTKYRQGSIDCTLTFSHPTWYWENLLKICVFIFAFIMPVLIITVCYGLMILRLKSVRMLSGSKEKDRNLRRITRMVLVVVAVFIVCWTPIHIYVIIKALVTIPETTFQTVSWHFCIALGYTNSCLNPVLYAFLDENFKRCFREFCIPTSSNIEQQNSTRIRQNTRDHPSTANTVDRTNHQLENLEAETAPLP
Experimental: as §1, §2, §3

[1] = system: IL-6 and IL-10 secretion in OCI-Ly3 cells; assay: IL-6 and IL-10 secretion by OCI-Ly3 cells (ELISA); assay type: cell-based, human
Experimental: Expression of cytokines from cell culture supernatants was measured 24h after treatment with 0, 0.01, 0.03, 0.1, 0.3, 1, or 3 uM of compounds using the following ELISA kits according to the manufacturer's instructions: Human IL-2 ELISA (BioLegend Cat #431804), Human IL-6 ELISA (BioLegend Cat #430504), and Human IL-10 ELISA (BioLegend Cat #430604).

TMD8 ABC-DLBCL cells = assay: Cell proliferation (cell count, trypan blue exclusion), TMD8; assay type: cell-based; details: TMD8, single dose of 1 μM, 12 days
From the text: Cell number was counted using the trypan blue dye exclusion method with Vi-CELL cell viability analyzer (Beckman Coulter) at days 7, 10, and 12 of treatment with compounds. Cell proliferation was specifically evaluated using the CellTrace Violet reagent (ThermoFisher Cat #C34571) which undergoes dilution with each round of cell division. 1.5×10^6 cells were washed twice in PBS and resuspended in 2 mls of PBS.

[2] = system: anti-CD3/CD28-induced phosphorylation of IKKα/β; assay: Phosphorylation of IKKα/β in Jurkat T cells (Western blot); assay type: cell-based; details: 20 hours pretreatment, anti-CD3/CD28 for 0-20 minutes
Experimental: The DLBCL cell lines, OCI-Ly1, OCI-Ly3, and OCI-Ly7, were provided by Dr. Mark Minden (University Health Network, Toronto, Ontario, Canada). TMD8 cells were provided by Dr. Louis Staudt (NCI, NIH). OCI-Ly1 and OCI-Ly7 cells were cultured in Iscove's Modified Dulbecco's Medium (IMDM) supplemented with 10% FBS. OCI-Ly3 cells were cultured in IMDM supplemented with 20% FBS. TMD8 and Jurkat T cells were cultured in RPMI1640 medium with 10% FBS. HEK293T cells were cultured in DMEM medium with 10% FBS. All media were supplemented with 100 U/ml penicillin streptomycin. Stimulation of Jurkat cells was conducted by adding 5 ng/ml of phorbol 12-myristatel3 acetate (PMA)(Sigma-Aldrich) and 1μM ionomycin (Calbiochem), or by adding 5-10 μL/mL of ImmunoCult Human CD3/CD28 ([…] Technologies).

T1 sequence (P21728 whole entry): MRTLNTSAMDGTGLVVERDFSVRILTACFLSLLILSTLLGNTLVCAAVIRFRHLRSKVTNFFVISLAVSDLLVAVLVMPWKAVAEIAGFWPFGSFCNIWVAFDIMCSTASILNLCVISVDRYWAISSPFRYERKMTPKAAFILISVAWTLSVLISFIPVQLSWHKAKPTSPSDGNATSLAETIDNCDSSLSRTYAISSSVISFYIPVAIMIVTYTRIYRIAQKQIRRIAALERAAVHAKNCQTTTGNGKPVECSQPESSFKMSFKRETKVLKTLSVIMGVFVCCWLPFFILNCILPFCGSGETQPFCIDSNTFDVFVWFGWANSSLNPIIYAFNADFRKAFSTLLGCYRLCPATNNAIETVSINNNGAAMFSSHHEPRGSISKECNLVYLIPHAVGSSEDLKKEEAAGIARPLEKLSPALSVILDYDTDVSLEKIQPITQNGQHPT

O=S(=O)(NCc1ccc2c(c1)OCO2)c1ccc(Cc2ccc(S(=O)(=O)NCc3ccc4c(c3)OCO4)cc2)cc1 [M1i-124]
IC50 (DRD1): 1900 nM
IC50 (CNR2): 9900 nM
IC50 (CHRM2): 1200 nM
IC50 (KvLQT1/minK): 1800 nM
IC50 (OPRM1): 3700 nM

COc1ccc(CNS(=O)(=O)c2ccc(Cc3ccc(S(=O)(=O)NCc4ccc(OC)cc4)cc3)cc2)cc1 [M1i-124d1]
IL-6 secretion [1]: inhibit IL-6 and IL-10 secretion in a concentration-dependent manner
IL-10 secretion [1]: inhibit IL-6 and IL-10 secretion in a concentration-dependent manner
Proliferation (TMD8 ABC-DLBCL cells): inhibit the proliferation
Phosphorylation of IKKα/β (phospho-IKK/total IKK) [2]: leads to inhibition
